Columns and labels:
[1] = system: pronuclear stage embryos of inbred rats F344; assay: Generation of Flox inbred rats (individuals) by one-step method (Treatment Example 12); type: cell-based, rat; conditions: F344, floxed p53 1STEP, high concentration, many pulses
Method: The pronuclear stage embryos of inbred rats similar to those of Treatment Example 6 according to Example 1 were knocked in by an electroporation method (1STEP method) by using a high concentration ssODN, and further individual preparations were performed. As in the above-mentioned treatment example 6, insertion of the LoxP that was not knocked in at the normal ssODN concentration and the number of transfer pulses was performed with the same temporary treatment as in the above-mentioned Example 1. Specifically, before and after electroporation, 1 hour of the temporary treatment, 24 hours of culture in the normal medium (waiting period), and 1 hour of the temporary treatment were performed. This made it possible to double the concentration of ssODN and the number of electroporations and to knocked in. Further, when the concentration of Cas9 was increased 5 times, Flox inbred rats were obtained by one electroporation.

[2] = system: immunodeficient mouse (nude) pronuclear stage embryos, BALB/c-nu; assay: Multi-gene knockout (BBOX1, IL2RG) in nude mouse embryos (Treatment Example 7); type: cell-based
Method: 1. Up to 3 hours before TAKE, Y-27632-added mWM medium (Y-27632 final concentration 10 μM, an example of the “temporary treatment medium” of this example) and Y-27632-free mWM medium (an example of “normal medium” of this example) were dropped into 35 mm Petri dishes by 5 drops, respectively, to prepare the drops covered with paraffin oil.
2. Pronuclear stage embryos were collected from the drops, placed in Y-27632-added mWM medium, and cultured for about 30 minutes to 1 hour (temporary treatment).
3. After that, TAKE was performed.
4. After TAKE, the embryos were placed in Y-27632-added mWM medium and cultured for about 30 minutes to 1 hour (temporary treatment).
5. Then, the embryos were placed in Y-free mWM medium and cultured at 37° C. under 5% CO2 and (5% O2) conditions until the next day. If necessary, culture was continued or embryo transfer was performed in Y-27632-free mWM medium.
In this production example, a multi-gene KO mouse was prepared by using an immunodeficient mouse (nude, a nude mouse) embryo.
Specifically, a male of BALB/c-nu/nu and a female of BALB/c-nu/+ treated with ovarian hyperstimulation were crossed, and a pronuclear stage embryos were collected. The guide RNAs (crRNA: tracrRNA), which are two for the BBOX1 gene and two for the IL2RG gene, are electroporated at about 100 ng/μL per guide RNA, totaling about 400 ng/μL, are electroporated with 14 transfer pulses, and, before and after the electroporation, the embryos were cultured in the temporary treatment medium of this example.

inbred mouse B6J embryos = assay: Generation of Flox inbred mice (individuals) by one-step method, high concentration ssODN (Treatment Example 11); type: cell-based; conditions: floxed MK2 1STEP (HIGH CONCENTRATION)
Method: Furthermore, in the same manner, the individual production is performed in an inbred mouse B6J strain by an electroporation method (1STEP method) by using a high concentration ssODN.

inbred rat F344 embryos = assay: Development to blastocyst after two electroporations (Treatment Example 5); type: cell-based; conditions: treated before and after electroporation
Method: 1. At least 3 hours before TAKE, 5 drops of Y-27632-added KSOM AA medium (Y-27632 final concentration 10 μM, an example of the “temporary treatment medium” of this example) were placed on a 35 mm Petri dish and drops covered with paraffin oil.
2. Pronuclear stage embryos were collected, placed in Y-27632-added KSOM AA medium, and cultured for about 30 minutes to 1 hour (temporary treatment).
3. After that, the first TAKE was performed.
4. After TAKE, the embryos were placed in Y-27632-added KSOM AA medium and cultured under 37° C., 5% CO2, and 5% O2 conditions for 30 minutes and more and up to 12 hours (temporary treatment).
5. Then, they were placed in Y-27632-free KSOM AA medium (an example of the “normal medium” of this example), and cultured under 37° C., 5% CO2, and 5% O2 conditions until the second TAKE.
6. The next day, the embryos that had become two cells were separated, and about 20 to 22 hours after egg collection, they were placed in Y-27632-added KSOM AA medium again and cultured for about 30 minutes to 1 hour (temporary treatment).
7. After that, the second TAKE was performed.
8. […]
In these figures, the development rate of the two-cell stage was calculated as the ratio of the two-cell stage embryo to the pronuclear stage embryo, and the development rate of the blastocyst stage was calculated as the ratio of the blastocyst stage to the two-cell stage embryo.

[3] = system: frozen embryos of C57BL/6J; assay: Recovery of re-frozen and re-thawed blastocysts, cytochalasin B vs Y-27632 (Treatment Example 10); type: cell-based, mouse; conditions: 10 μM in mWM; 19 embryos
Method: In this treatment example, as in the above-mentioned treatment example 9, the normal medium (hereinafter, referred to as “Y− medium” as in the treatment example 9), the temporary treatment medium to which Y-27632 is added (hereinafter, referred to as “Y+ medium” as in the treatment example 9), and a CB-added medium (hereinafter, referred to as “CB+ medium”) were used. The concentrations of CB in the CB+ medium were 5 μM and 10 μM are prepared. As the manipulation, the recovery rates when frozen embryos were thawed and developed, then re-frozen in blastocysts and re-thawed were compared.
For the treatment, 107 frozen embryos of C57BL/6J (provided from CLEA Japan, Inc.) at the 2-cell stage were used. Firstly, the frozen embryos at the 2-cell stage were thawed and blastocysts were developed as they were in a normal medium.
Then, the blastocysts were then transferred to each of the above media and placed for 30 minutes. Then, the embryos were transferred to Y− medium again and placed for 30 minutes.
Then, each embryo was frozen.
Then, the embryos were then thawed and placed in M2 medium for 10 minutes.
Then, each embryo was evenly divided and placed on the medium for 1 hour.
The embryos were observed by returning to the Y− medium again. This observation was performed immediately after thawing, 3 hours later, and 24 hours later.

[4] = of 4 surviving and 3 stillborn newborns analysed

C[C@@H](N)[C@H]1CC[C@H](C(=O)Nc2ccncc2)CC1 [Y-27632, trans-4-[(1R)-1-Aminoethyl]-N-4-pyrid inylcyclohexanecarboxamide]
NUMBER OF FLOX INDIVIDUALS / FLOX (2 SITES) ([1]; 92 transplanted embryos): 1/9 | Flox individuals % ([1]; listed as +Y): 11% | Flox individuals % ([1]; listed as Y): 11.1% | pups born ([2]; BALB/c nude embryos, 4 guide RNAs about 400 ng/μL, 14 transfer pulses, 63 embryos transplanted): 16 | analysed newborns with mutations [2, 4]: 3 | analysed newborns with mutations in 2 genes [2, 4]: 1 | Flox individuals % (inbred mouse B6J embryos): 16.7% | NUMBER OF FLOX INDIVIDUALS (inbred mouse B6J embryos): 1/6 | 2-cell stage embryos developed until the blastocyst stage (proportion) (inbred rat F344 embryos): 74 of 103 | embryos developed to the blastocyst (%) (inbred rat F344 embryos; ratio of blastocysts to 2-cell embryos): 71.8% | RECOVERY RATE about 3 hours later [3]: 94% | RECOVERY RATE about 24 hours later [3]: 89% | RECOVERY RATE immediately after thawing [3]: 36% | number of embryos ABOUT 3 HOURS LATER [3]: 18 | number of embryos ABOUT 24 HOURS LATER [3]: 17 | number of embryos IMMEDIATELY AFTER THAWING [3]: 7

Source: patent US20230220331A1, “TEMPORARY TREATMENT MEDIUM, TREATMENT KIT, EMBRYOGENESIS ARREST INHIBITOR, EMBRYOGENESIS ARREST INHIBITORY METHOD, DEVELOPMENTAL ENGINEERING PRODUCT PREPARATION METHOD, TRANSPLANTATION METHOD, THERAPEUTIC METHOD, AND DEVELOPMENTAL ENGINEERING PRODUCT” (priority 2020, published 2023)
